Calls of active or inactive are those of the source. The rule behind the calls is not given here. Where a SMILES comes first, the peptide text is derived from it. The star is where a group is joined. CF3 = FC(F)(F)*
What was measured:
Chymotrypsinogen A = Chymotrypsinogen A (Bos taurus, UniProt P00766); experiment: Inhibitory activity against alpha chymotrypsin from bovine pancreas.
Mast cell protease 9 = target: T1, Mast cell protease 9 (Mus musculus, UniProt O35164); experiment: Inhibitory activity against mouse peritoneal chymase
T1 sequence (O35164 whole entry): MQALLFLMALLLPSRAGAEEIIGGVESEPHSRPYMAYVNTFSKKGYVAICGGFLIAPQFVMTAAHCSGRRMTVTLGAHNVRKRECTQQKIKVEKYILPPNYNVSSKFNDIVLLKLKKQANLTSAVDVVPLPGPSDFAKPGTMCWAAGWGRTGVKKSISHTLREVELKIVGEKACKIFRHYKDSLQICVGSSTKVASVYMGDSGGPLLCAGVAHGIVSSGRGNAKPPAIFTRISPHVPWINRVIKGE

Chymase [1] = target: T2, Chymase (Rattus norvegicus, UniProt P50339); experiment: Inhibitory activity against rat peritoneal chymase
T2 sequence (P50339 whole entry): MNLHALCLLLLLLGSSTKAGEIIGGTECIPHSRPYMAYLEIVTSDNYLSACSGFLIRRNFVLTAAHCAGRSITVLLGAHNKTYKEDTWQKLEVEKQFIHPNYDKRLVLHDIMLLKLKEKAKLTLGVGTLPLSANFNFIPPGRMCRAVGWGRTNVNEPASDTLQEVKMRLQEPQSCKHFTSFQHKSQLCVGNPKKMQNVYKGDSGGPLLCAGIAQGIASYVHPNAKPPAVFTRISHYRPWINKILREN

[2] = target: Prothrombin (Homo sapiens) (UniProt P00734); experiment: Inhibitory activity against human plasma thrombin (10 uM); No inhibition; type: cell-free
[3] = target: T3, Neutrophil elastase (Homo sapiens) (UniProt P08246); experiment: Inhibitory activity against human leukocyte elastase (10 uM); No inhibition
T3 sequence (whole entry): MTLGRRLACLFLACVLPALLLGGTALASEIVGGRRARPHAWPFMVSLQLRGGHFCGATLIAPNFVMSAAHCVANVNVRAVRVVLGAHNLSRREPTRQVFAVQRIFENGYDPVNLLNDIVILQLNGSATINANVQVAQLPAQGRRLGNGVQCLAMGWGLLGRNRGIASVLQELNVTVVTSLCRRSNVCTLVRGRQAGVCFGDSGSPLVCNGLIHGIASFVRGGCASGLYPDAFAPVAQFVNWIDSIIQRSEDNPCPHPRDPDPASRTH

Chymase [4] = target: T4, Chymase (Homo sapiens, UniProt P23946)
T4 sequence (P23946 whole entry): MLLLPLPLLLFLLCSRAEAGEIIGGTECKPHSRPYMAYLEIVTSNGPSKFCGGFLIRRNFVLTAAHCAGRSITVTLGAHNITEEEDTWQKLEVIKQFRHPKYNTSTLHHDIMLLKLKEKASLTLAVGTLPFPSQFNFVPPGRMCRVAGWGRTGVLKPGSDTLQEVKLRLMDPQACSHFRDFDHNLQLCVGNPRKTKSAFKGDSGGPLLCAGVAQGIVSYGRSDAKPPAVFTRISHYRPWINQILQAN

Cathepsin G = target: T5, Cathepsin G (Homo sapiens, UniProt P08311); experiment: Inhibitory activity against human cathepsin G
T5 sequence (P08311 whole entry): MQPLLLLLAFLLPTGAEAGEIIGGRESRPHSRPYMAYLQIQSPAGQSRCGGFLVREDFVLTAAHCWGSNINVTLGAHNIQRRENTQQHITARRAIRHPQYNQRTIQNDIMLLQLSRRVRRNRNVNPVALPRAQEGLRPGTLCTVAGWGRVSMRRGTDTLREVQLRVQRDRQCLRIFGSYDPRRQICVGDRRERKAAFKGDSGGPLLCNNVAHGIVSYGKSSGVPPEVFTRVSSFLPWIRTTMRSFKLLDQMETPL

Chymase [5] = target: T4, Chymase; experiment: Inhibitory activity evaluated against chymase from human heart.
[6] = target: Angiotensin-converting enzyme (Homo sapiens) (UniProt P12821); experiment: Inhibitory activity against human angiotensin I converting enzyme (10 uM); No inhibition
Chymase [7] = target: T4, Chymase; experiment: inhibitory activity was evaluated against chymase from human heart.
[8] = Maximum plasma concentration was measured when a dose of 1 mg/kg is administered orally; type: ADME, organism-based; parameters: dose 1 mg/kg, route oral; details: rat, po
[9] = Pharmacokinetic parameter plasma clearance was determined at when a dose of 1 mg/kg is administered; type: ADME, organism-based; parameters: dose 1 mg/kg; details: rat
[10] = Oral Bioavailability was determined; type: ADME, organism-based; details: rat, in vivo, read-out: BA
[11] = Pharmacokinetic parameter AUC was determined when a dose of 1 mg/kg was administered intravenously; type: ADME, organism-based; parameters: dose 1 mg/kg, route intravenous; details: rat, in vivo, iv
[12] = Half life was evaluated when a dose of 1 mg/kg was administered intravenously to rats; type: ADME, organism-based; parameters: dose 1 mg/kg, route intravenous; details: rat, in vivo, iv
[13] = Steady state volume distribution was determined; steady state(ss); type: ADME, organism-based; details: rat, in vivo
[14] = Pharmacokinetic parameter AUC was determined when a dose of 1 mg/kg was administered orally; type: ADME, organism-based; parameters: dose 1 mg/kg, route oral; details: rat, in vivo, po
[15] = Time to reach Cmax when a dose of 1 mg/kg is administered orally; type: ADME, organism-based; parameters: dose 1 mg/kg, route oral; details: rat, in vivo, po
[16] = target: Prothrombin (Homo sapiens) (UniProt P00734); experiment: inhibitory activity against human plasma thrombin (10 uM); No inhibition; type: cell-free

Chain of Angiotensin-converting enzyme (Homo sapiens) (P12821 whole entry): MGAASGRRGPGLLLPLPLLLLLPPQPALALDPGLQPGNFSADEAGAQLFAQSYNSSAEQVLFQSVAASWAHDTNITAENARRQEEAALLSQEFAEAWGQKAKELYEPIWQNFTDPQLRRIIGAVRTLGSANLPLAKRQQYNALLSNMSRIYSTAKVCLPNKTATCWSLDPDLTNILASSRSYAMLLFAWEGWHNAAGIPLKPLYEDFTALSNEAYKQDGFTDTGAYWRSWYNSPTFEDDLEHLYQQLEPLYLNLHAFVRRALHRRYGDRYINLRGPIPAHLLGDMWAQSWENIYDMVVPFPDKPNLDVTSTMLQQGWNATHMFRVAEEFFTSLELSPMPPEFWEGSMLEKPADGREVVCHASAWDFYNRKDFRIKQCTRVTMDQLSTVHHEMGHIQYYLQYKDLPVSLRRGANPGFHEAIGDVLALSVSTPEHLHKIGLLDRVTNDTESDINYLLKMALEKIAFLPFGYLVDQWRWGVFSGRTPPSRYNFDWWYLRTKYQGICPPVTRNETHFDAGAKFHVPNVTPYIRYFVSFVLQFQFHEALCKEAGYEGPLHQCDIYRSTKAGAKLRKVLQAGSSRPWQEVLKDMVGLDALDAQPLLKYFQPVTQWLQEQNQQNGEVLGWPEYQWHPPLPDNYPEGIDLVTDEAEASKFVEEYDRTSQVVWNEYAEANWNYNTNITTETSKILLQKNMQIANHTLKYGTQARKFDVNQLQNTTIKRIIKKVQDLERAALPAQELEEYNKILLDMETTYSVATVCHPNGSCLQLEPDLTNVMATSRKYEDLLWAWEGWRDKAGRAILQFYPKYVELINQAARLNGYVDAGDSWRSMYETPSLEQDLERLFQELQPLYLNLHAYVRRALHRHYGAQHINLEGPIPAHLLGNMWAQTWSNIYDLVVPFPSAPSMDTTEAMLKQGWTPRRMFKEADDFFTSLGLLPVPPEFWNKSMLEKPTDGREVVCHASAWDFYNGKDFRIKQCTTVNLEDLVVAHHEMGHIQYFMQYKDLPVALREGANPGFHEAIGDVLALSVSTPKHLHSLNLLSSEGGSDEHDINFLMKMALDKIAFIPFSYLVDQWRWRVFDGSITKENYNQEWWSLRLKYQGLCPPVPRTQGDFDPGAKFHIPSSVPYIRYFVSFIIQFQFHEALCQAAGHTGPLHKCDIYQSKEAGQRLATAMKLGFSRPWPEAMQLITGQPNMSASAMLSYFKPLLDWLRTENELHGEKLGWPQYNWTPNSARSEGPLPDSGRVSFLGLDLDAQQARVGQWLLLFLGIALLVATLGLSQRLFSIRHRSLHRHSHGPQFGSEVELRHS

Row | Structure (SMILES) | Ki (Chymotrypsinogen A) [nM] | Ki (Chymase [5]) [nM] | also measured
1 | COC(=O)c1ccc2oc(C(=O)C(Cc3ccccc3)NC(=O)Cn3c(-c4cccc(C)c4)ncc(N)c3=O)nc2c1 (stereo not drawn) | 47.7 | 44.2 | 
2 | COC(=O)c1ccc2nc(C(=O)C(Cc3ccccc3)NC(=O)Cn3c(-c4ccc(F)cc4)ncc(N)c3=O)oc2c1 (stereo not drawn) | 71.3 |  | 
3 | Nc1cnc(-c2ccc(F)cc2)n(CC(=O)NC(Cc2ccccc2)C(=O)c2nc3cc(O)ccc3o2)c1=O (stereo not drawn) | 2230 | 2120 | 
4 | Nc1cnc(-c2ccc(F)cc2)n(CC(=O)NC(Cc2ccccc2)C(=O)c2nc3cc(-c4ccccc4)ccc3o2)c1=O (stereo not drawn) |  |  | Ki (Chymase [7]): 174 nM
5 | COC(=O)c1ccc2oc(C(=O)C(Cc3ccccc3)NC(=O)Cn3c(-c4cccnc4)ncc(N)c3=O)nc2c1 (stereo not drawn) | 45.1 |  | Ki (Chymase [7]): 77.4 nM
6 | Nc1cnc(-c2ccc(F)cc2)n(CC(=O)NC(Cc2ccccc2)C(=O)c2nc3cc(C(=O)O)ccc3o2)c1=O (stereo not drawn) | 133 |  | 
7 | CC(C)C[C@H](NC(=O)[C@@H](NC(=O)N[C@@H](Cc1ccccc1)C(=O)O)C1CCN=C(N)N1)C(=O)N[C@H](C=O)Cc1ccccc1 (stereo partly drawn) [CHYMOSTATIN] |  |  | Ki (Chymase [7]): 13.1 nM
8 | Nc1ccc2oc(C(=O)C(Cc3ccccc3)NC(=O)Cn3c(-c4ccc(F)cc4)ncc(N)c3=O)nc2c1 (stereo not drawn) | 60 |  | 
9 | COC(=O)c1ccc2oc(C(=O)C(Cc3ccccc3)NC(=O)Cn3c(-c4cccc(OC)c4)ncc(N)c3=O)nc2c1 (stereo not drawn) | 943 | 4.85 | Ki (Mast cell protease 9): 63.9 nM; Cmax [8]: 396 ng/mL; clearance [9]: 0.168 mL/min/kg; Ki (Chymase [1]): 86.6 nM; bioavailability [10]: 19.3%; NA [3]: inactive; AUC [11]: 108000 ng·h/mL; Ki (Chymase [4]): 1.12 nM; half-life [12]: 35.7 h; Vd [13]: 0.469 L/kg; AUC [14]: 20800 ng·h/mL; Tmax [15]: 6 h; NA [16]: inactive; NA [6]: inactive
10 | COC(=O)c1ccc2oc(C(=O)C(Cc3ccccc3)NC(=O)Cn3c(-c4cccc(Cl)c4)ncc(N)c3=O)nc2c1 (stereo not drawn) | 3820 | 26.1 | 

More lines, main results first:

Row | Ki (Chymotrypsinogen A) [nM] | Ki (Chymase [5]) [nM] | Structure (SMILES) | also measured
11 | 52.9 | 22.6 | COC(=O)c1ccc2oc(C(=O)C(Cc3ccccc3)NC(=O)Cn3c(-c4ccc(F)cc4)ncc(N)c3=O)nc2c1 (stereo not drawn) | Ki (Mast cell protease 9): 40.4 nM; Ki (Chymase [1]): 103 nM; NA [2]: inactive; NA [3]: inactive; Ki (Chymase [4]): 3.68 nM; Ki (Cathepsin G): 720 nM; NA [6]: inactive
12 | 4400 | 82.1 | CC(C)[C@H](N)C(=O)N1CCC[C@H]1C(=O)N[C@@H](Cc1ccccc1)C(=O)C(F)(F)F (H-Val-Pro-Phe-CF3) | 
13 | 477 | 30 | CCOC(=O)c1ccc2oc(C(=O)C(Cc3ccccc3)NC(=O)Cn3c(-c4ccc(F)cc4)ncc(N)c3=O)nc2c1 (stereo not drawn) | 
14 | 11500 |  | COC(=O)c1ccc2oc(C(=O)C(Cc3ccccc3)NC(=O)Cn3c(-c4cccc([N+](=O)[O-])c4)ncc(N)c3=O)nc2c1 (stereo not drawn) | 
15 | 60.5 | 60.6 | Nc1cnc(-c2ccc(F)cc2)n(CC(=O)NC(Cc2ccccc2)C(=O)c2nc3ncccc3o2)c1=O (stereo not drawn) | 
16 | 855 | 5.6 | COC(=O)c1ccc2oc(C(=O)C(Cc3ccccc3)NC(=O)Cn3c(-c4cccc(N)c4)ncc(N)c3=O)nc2c1 (stereo not drawn) | 
17 | 467 | 43.5 | COC(=O)c1ccc2oc(C(=O)C(Cc3ccccc3)NC(=O)Cn3c(-c4ccncc4)ncc(N)c3=O)nc2c1 (stereo not drawn) | 
18 | 32.6 | 68.6 | CCNC(=O)c1ccc2oc(C(=O)C(Cc3ccccc3)NC(=O)Cn3c(-c4ccc(F)cc4)ncc(N)c3=O)nc2c1 (stereo not drawn) | 
19 | 53.4 | 94 | NC(=O)c1ccc2oc(C(=O)C(Cc3ccccc3)NC(=O)Cn3c(-c4ccc(F)cc4)ncc(N)c3=O)nc2c1 (stereo not drawn) | 
20 | 65.1 |  | Nc1cnc(-c2ccc(F)cc2)n(CC(=O)NC(Cc2ccccc2)C(=O)c2nc3cc(F)ccc3o2)c1=O (stereo not drawn) | 
21 | 1770 | 14.3 | COC(=O)c1ccc2oc(C(=O)C(Cc3ccccc3)NC(=O)Cn3c(-c4cccc(F)c4)ncc(N)c3=O)nc2c1 (stereo not drawn) | 
22 | 23.3 | 59.5 | CCN(CC)C(=O)c1ccc2oc(C(=O)C(Cc3ccccc3)NC(=O)Cn3c(-c4ccc(F)cc4)ncc(N)c3=O)nc2c1 (stereo not drawn) | 

— ChEMBL document CHEMBL1134397, “Synthesis, structure-activity relationships, and pharmacokinetic profiles of nonpeptidic alpha-keto heterocycles as novel inhibitors of human chymase” (J Med Chem, 2001)
